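1) Cells in 96-well plates. 2) Compound, 48 h, 5 concentrations. 3) Linear interpolation between surrounding doses. 4) Unreached endpoint = highest concentration. At the TGI there is no net growth.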
Legend:
Assay in all cases: growth of human tumour cells (NCI), 48 h
MOLT-4 leukemia = test system: MOLT-4 leukemia
NCI-H460 lung = test system: NCI-H460 lung
NCI-H23 lung = test system: NCI-H23 lung
MALME-3M melanoma = test system: MALME-3M melanoma
OVCAR-3 ovarian = test system: OVCAR-3 ovarian
SK-MEL-2 melanoma = test system: SK-MEL-2 melanoma
M14 melanoma = test system: M14 melanoma
K-562 leukemia = test system: K-562 leukemia
OVCAR-8 ovarian = test system: OVCAR-8 ovarian
SW-620 colon = test system: SW-620 colon

SMILES	TGI (MOLT-4 leukemia)	TGI (NCI-H460 lung)	TGI (NCI-H23 lung)	TGI (MALME-3M melanoma)	TGI (OVCAR-3 ovarian)	TGI (SK-MEL-2 melanoma)	TGI (M14 melanoma)	TGI (K-562 leukemia)	TGI (OVCAR-8 ovarian)	TGI (SW-620 colon)
COc1ccc2cc(/C=N/NC(=O)Nc3ccccc3)ccc2c1	> 100 µM	> 100 µM	> 100 µM	> 100 µM	> 100 µM	> 100 µM	> 100 µM	> 100 µM	> 100 µM	> 100 µM
COC(=O)C1=C(O)C(C(=O)OC)[C@]2(O)[C@H](C(=O)OC)[C@H]1C[C@@H](c1ccc(C(F)(F)F)cc1)[C@H]2C(=O)OC (stereo not given in full)	> 100 µM	> 100 µM	21.7 µM	22.4 µM	54.1 µM	15.1 µM	29.4 µM	> 100 µM	> 100 µM	> 100 µM
O=C(Oc1ccccn1)c1cc2cc(CCl)ccc2oc1=O	> 100 µM	> 100 µM	62.7 µM	31.3 µM	38.1 µM	> 100 µM	> 100 µM	> 100 µM	> 100 µM	> 100 µM
Nc1nc(SC/C=C/c2ccccc2)c2[nH]cnc2n1	> 100 µM	> 100 µM	> 100 µM	> 100 µM	> 100 µM	> 100 µM	> 100 µM	> 100 µM	> 100 µM	> 100 µM
CN=C(N=Nc1c(O)[nH]c2ccccc12)SCC(=O)c1ccc(Br)cc1	> 100 µM	> 38.3 µM	51.1 µM	> 47.1 µM	28.2 µM	> 100 µM	39.3 µM	> 100 µM	> 40.7 µM	> 34.1 µM
O=[N+]([O-])/C(C(Cl)=C(Cl)Cl)=C(/Cl)Sc1ccccc1	1.23 µM	34.6 µM	4.1 µM	3.03 µM	3.61 µM	27.4 µM	3.24 µM	2.4 µM	0.786 µM	1.07 µM
CCOC(=O)c1nnc2c(C(=O)OCC)c3ccccc3n2c1N	> 100 µM	> 100 µM	> 100 µM	7.57 µM	> 100 µM	> 100 µM	> 100 µM	> 100 µM	> 100 µM	> 100 µM
CC(CO)(CO)N1C(=O)C2C3C=CC(C3)C2C1=O (stereo not given)	> 100 µM	> 100 µM	> 100 µM	> 100 µM	> 100 µM	> 100 µM	> 100 µM	> 100 µM	> 100 µM	> 100 µM
COC(=O)c1ccccc1/C=C1\Cc2ccc(C)c(C)c2C1=O	> 100 µM	> 100 µM	> 100 µM	> 100 µM	> 100 µM	> 100 µM	> 100 µM	> 100 µM	> 100 µM	> 100 µM
